One experiment relates to A549. As to the kind of experiment: MTS cell viability assay, A549. Format: cell-based. Conditions: Homo sapiens, Table 7, 72 hours, read-out: IC50 against A549. How it is done: (§1) Primary viability screening: (1) the synthesized compounds 3a to 13d were respectively dissolved in DMSO to prepare a 40 μg/mL cannabicyclol and cannabicyclol derivative solutions.
(§2) (2) A control group: a 200 μL DMSO solvent.
(§3) (3) The solutions of compounds 3a to 13d were diluted in a twofold gradient to obtain cannabicyclol and cannabicyclol derivative solutions at concentrations of 40 μg/mL, 20 μg/mL, 10 μg/mL, 5 μg/mL, 2.5 μg/mL, 1.25 μg/mL, and 0.625 μg/mL, and 0.3125 μg/mL, respectively.
(§4) (4) Three glioblastoma stem cells (GSC-3, GSC-12, and GSC-18), three pancreatic cancer cell-derived stem cells (PANC-1-CSC, BXPC-3-CSC, and ASPC1-CSC), three liver cancer cell-derived stem cells (HepG2-CSC, MHCC97H-CSC, and SMMC7721-CSC), HEK-293T cells, 16 tumor cells (U251, U87, T98G, PANC1, BXPC3, ASPC1, HepG2, MHCC97H, SMMC7721, PC3, SKOV3, MDA-MB231, A549, HCT116, HEC-1B, MKN28), and differentiated glioblastoma stem cells (GSC-3diff and GSC-12diff) derived from GSC-3 and GSC-12 (all of the cells were provided by the Laboratory of Tumor Animal Model Preparation and Application Research, West China Hospital, Sichuan University) were inoculated into a 96-well plate at a concentration of 2×10^4 cells/well, and 100 μL of culture medium was then added to each well; […]
(§5) (10) The absorbance value at 490 nm was measured on an enzyme labeling apparatus, and the IC50 value was calculated.

A further experiment has as its system SMMC7721 liver cancer. Nature of the experiment: Mouse liver cancer model (subcutaneous SMMC7721). In kind it is in vivo, mice. The note with it: for tumor volume compared with the control group: 23 days, FIG. 5; for tumor weight compared with the control group: day 23, FIG. 7. The protocol:
Establishment of a mouse liver cancer model: 2×10^6 SMMC7721 (containing 30% Matrigel) was subcutaneously injected into the right inguinal region of the mice (NOD/ShiLtJGpt-Prkdc^em26cd52 Il2rg^em26cd22/Gpt(NCG)mic). The model was established when the tumor volume reached 50 mm^3.
According to the weight of mice: in treatment group 1, each mouse was intraperitoneally injected with a CBL solution at 50 mg/kg, and in treatment group 2, each mouse was intraperitoneally injected with a CBL solution at 100 mg/kg. The mice in a control group were injected with an equal volume of a DMSO solvent. The drug was administered once every 2 days, continuing for 23 days. Tumor volume was measured on days 3, 7, 10, 14, 17, 20, and 23. On day 23, the tumor tissue was collected and weighed. The tumor volume changes at different time points are shown in FIG. 5, the tumor tissue collected on day 23 is shown in FIG. 6, and the average tumor weight of different treatment groups is shown in FIG. 7.

The next experiment deals with BXPC3. Nature of the experiment: MTS cell viability assay, BXPC3. The note with it: Homo sapiens, BXPC-3; Table 7, 72 hours; read-out: IC50 against BXPC3. Format: cell-based. How it is done: as §1, §2, §3, §4, §5
(Formazan colour is commonly taken as a measure of viable cells.)

In a further experiment the test system is GSC-12. Nature of the experiment: Soft agar colony (clone) formation, GSC-12. In kind it is cell-based. Conditions: crystal violet, FIG. 4, compound 3a 0, 5 and 5 [sic] μg/mL. How it is done:
(§6) […] of low-melting-point agarose was dissolved in 12.5 mL of ddH2O to prepare a 3.2% low-melting-point agarose gel. The low-melting-point agarose gel was sterilized by autoclaving at 121° C. and 0.12 MPa for 20 minutes. After sterilization, the low-melting-point agarose gel was maintained at 60° C. in a drying oven for further use.
(§7) 1.75 mL of 3.2% sterile low-melting-point agarose gel was taken, 5.25 mL of the corresponding complete medium was added, and the two were mixed thoroughly using a pipette to prepare a base gel at a concentration of 0.8%.
(§8) 1 mL of the base gel was added to each well of a 6-well plate, ensuring that the base gel evenly covered the bottom of each well. The plate was placed at 4° C. for 5 minutes to allow the gel to solidify. After the gel had fully solidified, the plate was warmed at 37° C. for 5 minutes.
(§9) 6 cells/cell lines (U251, SMMC7721, GSC-3, GSC-12, SMMC7721-CSC, and HepG2-CSC) were individually digested with 1× trypsin for 3 minutes. The corresponding complete culture medium (same as in the application example 1) was added to terminate the digestion. Cells were centrifuged at 1000 rpm for 3 minutes, and the cells were collected and counted. A total of 5×10^3 cells were added to each well, each group was set up with three replicates. […]

Another experiment concerns SMMC7721-CSC. Nature of the experiment: Soft agar colony (clone) formation, SMMC7721-CSC. Format: cell-based. The note with it: crystal violet, FIG. 4, compound 3a 0, 5 and 5 [sic] μg/mL. How it is done: as §6, §7, §8, §9
The mark [1] stands for this setting: treatment group 1, 50 mg/kg intraperitoneally once every 2 days.
[2] abbreviates: treatment group 2, 100 mg/kg intraperitoneally once every 2 days.

The term IC50 denotes the concentration at which inhibition is half-maximal. On to `CCCCCc1cc(O)c2c(c1)OC1(C)CCC3C1C2C3(C)C` (stereo not drawn) [Compound 3a, cannabicyclol], for which the IC50 with A549 and in the experiment with BXPC3 was above 40 µg/mL throughout. Besides, the “inhibitory effect on liver cancer, 100 mg/kg compared to 50 mg/kg” value with SMMC7721 liver cancer (100 mg/kg versus 50 mg/kg dosage, intraperitoneal) was “better inhibitory effect”. Further, the “tumor volume compared with the control group” value with SMMC7721 liver cancer (setting [1]) and in the experiment with SMMC7721 liver cancer (setting [2]) was “significantly inhibited” in each case. In addition, the “tumor weight compared with the control group” value in the experiment with SMMC7721 liver cancer (setting [1]) and with SMMC7721 liver cancer (setting [2]) was “significantly inhibited” in each case. Further, the “colony formation of GSC-12” value in the experiment with GSC-12 is recorded as “significantly inhibited”. In addition, the “colony formation of SMMC7721-CSC” value in the experiment on SMMC7721-CSC is listed as “significantly inhibited”.

These data come from US20250353825A1, “CANNABICYCLOL DERIVATIVES AND PREPARATION METHODS THEREOF” (priority 2023, published 2025).
